Experimental data taken from patent US20060079453A1, “Hla binding peptides and their uses” (priority 2002, published 2006).
Like-named read-outs stand apart in the source and are kept apart here. No end group written: not given here.

Tests used:
Assay in all cases: biochemical
Assay type in all cases: binding
[1] = target: HLA-A*0203 (Homo sapiens, UniProt P04439, A173T/D140Y/D185E/D98H/E277Q/G131W/G231S/I119V/I121R/I166T/I218V/L180W/L300P/L318F/N151K/N90K/P208A/P217A/Q86G/Q94H/R138H/R169H/T345S)
[2] = target: HLA-A*6802 (Homo sapiens, UniProt P04439, A269V/D140Y/D185E/E176V/E277Q/E87N/F33Y/G231S/I121R/I166T/I218V/L180W/L300P/L318F/N151K/P208A/P217A/Q86R/R138H/R169H/S129P/T345S/V36M)
[3] = target: HLA-A*0202 (Homo sapiens, UniProt P04439, D140Y/D185E/D98H/E176V/E277Q/G131W/G231S/I119L/I121R/I166T/I218V/L180W/L300P/L318F/N151K/N90K/P208A/P217A/Q67R/Q86G/Q94H/R138H/R169H/T345S)
[4] = target: HLA-A*0201 (Homo sapiens, UniProt P04439, D140Y/D185E/D98H/E176V/E277Q/G131W/G231S/I119V/I121R/I166T/I218V/L300P/L318F/N151K/N90K/P208A/P217A/Q86G/Q94H/R138H/R169H/T345S)
[5] = target: HLA-A*0206 (Homo sapiens, UniProt P04439, D140Y/D185E/D98H/E176V/E277Q/F33Y/G131W/G231S/I119V/I121R/I166T/I218V/L300P/L318F/N151K/N90K/P208A/P217A/Q86G/Q94H/R138H/R169H/T345S)
[6] = target: HLA-A*2301 (Homo sapiens, UniProt P04439, D101N/D140Y/D185E/E176V/E190D/F33S/G103R/G107R/H175R/I119L/I121M/I306V/K168Q/K335N/L105A/L300P/N151K/N90K/P307H/Q86E/Q94H/R106L/R138H/R89G/T104I/T345S/V100E/W191G/Y123F)
[7] = A*0203 binding affinity (expressed as an IC50)
[8] = A*6802 binding affinity (expressed as an IC50)
[9] = A*0202 binding affinity (expressed as an IC50)
[10] = A*0201 binding affinity (expressed as an IC50)
[11] = A*0206 binding affinity (expressed as an IC50)

Row | Sequence | IC50 [1, 7] | IC50 [2, 8] | IC50 [3, 9] | IC50 [4, 10] | IC50 [5, 11] | IC50 [1] | IC50 [2] | IC50 [3] | IC50 [4] | IC50 [5] | IC50 [6] | IC50 ([6]; read-out: A*2301 binding affinity (IC50))
1 | MTSNPPIPV | 0.39 nM | 3.8 nM | 16 nM | 53 nM | 250 nM |  |  |  |  |  |  | 
2 | MTSNPPVPV | 0.8 nM | 1.1 nM | 29 nM | 22 nM | 81 nM |  |  |  |  |  |  | 
3 | PVPLQLPPV |  |  |  |  |  | 12600 nM | > 15600 nM | > 7340 nM | 10000 nM | 81 nM |  | 
4 | QLFEDKYAL [QLFEDKYAL] | 380 nM | 2980 nM | 1.8 nM | 646 nM | 2010 nM |  |  |  |  |  |  | 
5 | QLVGPGPGMEV | 19 nM | 223 nM | 17 nM | 865 nM | 919 nM |  |  |  |  |  |  | 
6 | RTLHDLCQA | 678 nM | 61600 nM | 34 nM | 8120 nM | 96 nM |  |  |  |  |  |  | 
7 | RYQDPQNYEL |  |  |  |  |  |  |  |  |  |  | 124 nM | 
8 | SLLGPGPGAV | 2.6 nM | 795 nM | 17 nM | 95 nM | 642 nM |  |  |  |  |  |  | 
9 | SLLNGPGPGV | 14 nM | 45 nM | 3.8 nM | 65 nM | 63 nM |  |  |  |  |  |  | 
10 | TLGPGPGHL | 66 nM | 27900 nM | 35 nM | 15000 nM | 12100 nM |  |  |  |  |  |  | 
11 | TYCCKCDSTL |  |  |  |  |  |  |  |  |  |  |  | 30 nM
12 | VLAEAMATA | 0.73 nM | 33 nM | 1.4 nM | 6.7 nM | 8.6 nM |  |  |  |  |  |  | 
13 | VLAEAMSKV | 1.4 nM | 329 nM | 1.8 nM | 230 nM | 93 nM |  |  |  |  |  |  | 
14 | VLAEAMSQT |  |  |  |  |  | 0.65 nM | 447 nM | 2.2 nM | 290 nM | 236 nM |  | 
15 | VLAEAMSRA |  |  |  |  |  | 1 nM | 229 nM | 0.88 nM | 127 nM | 20 nM |  | 
16 | VLAGPGPGVTL | 94 nM | 2640 nM | 2.4 nM | 1120 nM | 7200 nM |  |  |  |  |  |  | 
17 | VLAKEGPGPGL | 37 nM | 51000 nM | 6.9 nM | 1890 nM | 59000 nM |  |  |  |  |  |  | 
18 | VLFLQMMNV | 2.7 nM | 323 nM | 1.8 nM | 31 nM | 9.5 nM |  |  |  |  |  |  | 
19 | VLRLFVCFLI | 299 nM | 45600 nM | 2110 nM | 2740 nM | 68200 nM |  |  |  |  |  |  | 
20 | VLVHPQWVV | 1990 nM | 14600 nM | 65 nM | 464 nM | 3220 nM |  |  |  |  |  |  | 
21 | VVQAGFFLV | 2500 nM | 617 nM | 79 nM | 440 nM | 81 nM |  |  |  |  |  |  | 
22 | WLNYTPGPGT |  |  |  |  |  | 231 nM | 11800 nM | 124 nM | 547 nM | > 31600 nM |  | 
23 | WLSGPGPGV | 12 nM | 24 nM | 2.5 nM | 220 nM | 885 nM |  |  |  |  |  |  | 
24 | YLGPGPGAGI | 4.2 nM | 315 nM | 1 nM | 161 nM | 548 nM |  |  |  |  |  |  | 
25 | YLLGPGPGGI | 3.3 nM | 2060 nM | 12 nM | 180 nM | 89 nM |  |  |  |  |  |  | 
26 | YLLTGPGPGI | 59 nM | 5680 nM | 15 nM | 42 nM | 60 nM |  |  |  |  |  |  | 
27 | YLLTLWKAGI |  |  |  |  |  | 20 nM | 1390 nM | 19 nM | 20 nM | 40 nM |  | 
28 | YTPGPGIRYPV | 11100 nM | 9.2 nM | 1990 nM | 7760 nM | 1110 nM |  |  |  |  |  |  | 
29 | YVDDVVLGV | 70 nM | 354 nM | 14 nM | 18 nM | 16 nM |  |  |  |  |  |  | 
